For ten compounds, GI50 and TGI results are on record in PubChem BioAssay (NCI).

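Growth conditions: 96-well plates. Treatment: test compound, 48 hours, 5 concentrations. Analysis: linear interpolation between bracketing concentrations; unreached endpoints set to highest concentration. At the GI50, growth is halved. TGI: concentration producing complete growth inhibition.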

Some test systems named below: A498 renal; HCC-2998 colon; LOX IMVI melanoma; MALME-3M melanoma; MDA-MB-435; NCI-H23 lung; NCI-H460 lung; PC-3 prostate; SF-295 CNS; RXF 393 renal.
Holding throughout (experiment): growth of human tumour cells (NCI), 48 h

`C[C@]12CC[C@H](O)CC1=CC[C@@H]1[C@@H]2CC[C@]2(C)C(=O)/C(=C/c3cccc(OCCCn4ccnc4)c3)C[C@@H]12`: the GI50 in the assay with A498 renal is 20.5 µM; in the assay on HCC-2998 colon, 34.1 µM; in the assay on LOX IMVI melanoma it was 23.1 µM; in the assay on MALME-3M melanoma it was 23.9 µM; in the assay on MDA-MB-435, 36.8 µM; with NCI-H23 lung it was 15.5 µM. For the same compound, the values for the GI50 in the assay with NCI-H460 lung, in the assay with PC-3 prostate and in the assay with SF-295 CNS were 19.6 µM, 15.6 µM and 31.7 µM, respectively. The TGI in the assay with A498 renal is 39.1 µM; in the assay on HCC-2998 colon it was greater than 100 µM; with LOX IMVI melanoma, 56.2 µM; in the assay with MALME-3M melanoma, 59.1 µM; in the assay with MDA-MB-435, greater than 100 µM; in the assay on NCI-H23 lung it was 32.3 µM. For the same compound, the TGI was 43.2 µM in the assay with NCI-H460 lung, 39.8 µM with PC-3 prostate and greater than 100 µM with SF-295 CNS.

As for `O=C1OCC(c2ccc(O)c(O)c2)=C1c1cc(O)c(O)c(O)c1`, the GI50 was greater than 100 µM with A498 renal; 19.1 µM in the assay on LOX IMVI melanoma; greater than 100 µM in the assay on MALME-3M melanoma; 17 µM in the assay with MDA-MB-435; 19.2 µM with NCI-H23 lung; 35.3 µM with NCI-H460 lung. Besides, the GI50 is 17.9 µM with PC-3 prostate, greater than 100 µM with RXF 393 renal and 14.6 µM in the assay with SF-295 CNS. The TGI with A498 renal is greater than 100 µM; in the assay on LOX IMVI melanoma, 36.8 µM; with MALME-3M melanoma it was greater than 100 µM; with MDA-MB-435, 32.5 µM; in the assay with NCI-H23 lung, 38.2 µM; in the assay on NCI-H460 lung, greater than 100 µM. Besides, the figures for the TGI in the assay on PC-3 prostate, with RXF 393 renal and with SF-295 CNS were 43.3 µM, greater than 100 µM and 30.9 µM, respectively.

For the compound `COc1ccc(-c2cc3cccc(OC)c3c(=O)o2)cc1OC`, the GI50 in the assay on A498 renal was 81.7 µM; with LOX IMVI melanoma it was 11.5 µM; with MALME-3M melanoma it was greater than 100 µM; in the assay on MDA-MB-435 it was 3.22 µM; with NCI-H23 lung, 47.9 µM; in the assay on NCI-H460 lung, 31.1 µM. Besides, the GI50 in the assay on PC-3 prostate is 55.9 µM; in the assay with RXF 393 renal, 32 µM; with SF-295 CNS, 33.8 µM. Moreover, the TGI in the assay with A498 renal, in the assay on LOX IMVI melanoma, in the assay on MALME-3M melanoma, with MDA-MB-435, with NCI-H23 lung and in the assay with NCI-H460 lung was greater than 100 µM throughout. The TGI in the assay with PC-3 prostate, in the assay on RXF 393 renal and with SF-295 CNS was greater than 100 µM each time.

On to `CC(C)C1CN1CC(O)Cn1ccnc1[N+](=O)[O-]` (configuration not stated), for which the TGI with A498 renal, in the assay with HCC-2998 colon, in the assay on MALME-3M melanoma, in the assay with NCI-H23 lung, in the assay on NCI-H460 lung and with PC-3 prostate was greater than 100 µM each time. The TGI in the assay on SF-295 CNS was greater than 100 µM.

In the case of `C=C1C(=O)O[C@H]2[C@H]1CC/C(COC(=O)OCCCCCOC(=O)OC/C1=C/CC[C@@]3(C)O[C@H]3[C@H]3OC(=O)C(=C)[C@@H]3CC1)=C\CC[C@@]1(C)O[C@@H]21`, the GI50 with A498 renal is 1.5 µM; with LOX IMVI melanoma it was 0.241 µM; in the assay with MALME-3M melanoma, 0.285 µM; with MDA-MB-435, 0.527 µM; with NCI-H23 lung, 0.674 µM; in the assay on NCI-H460 lung, 1.87 µM. Moreover, the GI50 in the assay on PC-3 prostate is 1.83 µM; in the assay on RXF 393 renal, 0.155 µM; in the assay with SF-295 CNS, 2.12 µM. Also, the TGI in the assay with A498 renal was determined as 3.21 µM; in the assay with LOX IMVI melanoma, 0.654 µM; in the assay with MALME-3M melanoma, 0.878 µM; in the assay with MDA-MB-435 it was 2.13 µM; in the assay on NCI-H23 lung, 2.37 µM; with NCI-H460 lung, 4.64 µM. Also, the figures for the TGI in the assay on PC-3 prostate, in the assay on RXF 393 renal and with SF-295 CNS were 4.54 µM, 0.307 µM and 5.88 µM, respectively.

On to `COc1cc2c(cc1OC)C13CCN4CC5=CCOC(CC(=O)O)C(C5CC41)C3N2` (configuration not stated), for which the TGI in the assay on A498 renal, with LOX IMVI melanoma, in the assay with MALME-3M melanoma, in the assay with MDA-MB-435, in the assay on NCI-H23 lung and in the assay on NCI-H460 lung was greater than 100 µM each time. Also, the TGI with PC-3 prostate and in the assay on SF-295 CNS was greater than 100 µM throughout.

`O=C1c2ccn(CCCCN3CCOCC3)c2C(=O)c2c1c(O)c1ccccc1c2O`: the GI50 in the assay on A498 renal is 19.3 µM; with LOX IMVI melanoma, 3.58 µM; with MDA-MB-435 it was 2.13 µM; with NCI-H23 lung, 11.4 µM; in the assay on NCI-H460 lung, 12.3 µM; with PC-3 prostate, 6.96 µM. Moreover, the GI50 was 2.2 µM in the assay on RXF 393 renal and 3.58 µM in the assay with SF-295 CNS. The TGI in the assay on A498 renal is greater than 100 µM; with LOX IMVI melanoma, 23.1 µM; in the assay on MDA-MB-435, 4.62 µM; in the assay on NCI-H23 lung it was 23.6 µM; in the assay with NCI-H460 lung it was 28.4 µM; in the assay on PC-3 prostate it was 27.3 µM. The TGI was 6.93 µM in the assay on RXF 393 renal and 16.2 µM in the assay with SF-295 CNS.

For the compound `O=CC1=CCCC2(C1)OCCO2`, the TGI with A498 renal, in the assay on HCC-2998 colon, in the assay with LOX IMVI melanoma, in the assay on MALME-3M melanoma, in the assay with NCI-H23 lung and in the assay on NCI-H460 lung was greater than 100 µM each time. Also, the TGI in the assay with RXF 393 renal and with SF-295 CNS was greater than 100 µM in each case.

In the case of `Cn1ncc2c(Nc3ccc(Br)cc3)nc(Nc3ccc(Br)cc3)nc21`, the GI50 with A498 renal was 2.68 µM; in the assay on HCC-2998 colon, 1.94 µM; in the assay on LOX IMVI melanoma it was 1.77 µM; with MALME-3M melanoma, 3.32 µM; in the assay with MDA-MB-435, 2.86 µM; in the assay on NCI-H23 lung, 3.63 µM. Also, the GI50 in the assay on NCI-H460 lung was 2.23 µM; with RXF 393 renal it was 2.81 µM; in the assay with SF-295 CNS it was 1.82 µM. The TGI was 9.9 µM in the assay on A498 renal; 3.98 µM with HCC-2998 colon; 3.36 µM in the assay on LOX IMVI melanoma; 14.7 µM with MALME-3M melanoma; 10.7 µM with MDA-MB-435; 16.2 µM with NCI-H23 lung. For the same compound, the TGI came out at 5.23 µM in the assay on NCI-H460 lung, 7.57 µM with RXF 393 renal and 4.03 µM with SF-295 CNS.

`COC(=O)N1[C@H]2Cc3c(OC)c(C)c(OC)c(OC)c3[C@@H]1/C(=C\c1cc(OC)c(OC)c(C)c1OC)N(Cc1ccccc1)C2=O`: the TGI is greater than 100 µM in the assay with A498 renal; greater than 100 µM with HCC-2998 colon; greater than 100 µM in the assay with LOX IMVI melanoma; 88.7 µM with MALME-3M melanoma; greater than 100 µM in the assay on NCI-H23 lung; greater than 100 µM in the assay with NCI-H460 lung. For the same compound, the TGI with RXF 393 renal and in the assay with SF-295 CNS was greater than 100 µM each time.
